Reference: patent US20240010987A1, “IN VITRO LIVER DISEASE MODEL USING TRIPLE CO-CULTURE AND PREPARATION METHOD THEREOF” (FUTURE MEDICINE CO., LTD., priority 2020, published 2024)

Assays:
[1] = tested on: HuH-7:LX-2:ImKC triple co-culture; assay: Marker changes in triple co-culture in vitro liver disease model (steatosis, inflammation, fibrosis) after drug treatment; format: cell-based, human (HuH-7, mouse (ImKC); details: hepatic steatosis (FFA), inflammation (FFA+LPS) or fibrosis (FFA+TGF-β1) induced; FIGS. 5 to 14
Experimental: After the cells were fixed for 1 hour for direct co-culture, a 0.4 μm pore size cell culture insert (Corning™) was positioned on top of a direct co-culture dish for indirect co-culture of the corresponding cells with an immortalized mouse Kupffer cell line (ImKC). The cell suspensions of the immortalized mouse Kupffer cell line (ImKC) were added to the positioned cell culture insert (Corning™) such that the number of cells per area was 15,000 cells/cm^2, and the cells were cultured in a CO2 incubator (Thermo Scientific™) under 37° C. and 5% CO2 conditions for 24 hours (FIG. 1).
The cell culture dishes for each experimental group shown in the following Table 3, which was cultured for 24 hours in a CO2 incubator (Thermo Scientific™) under 37° C. and 5% CO2 conditions at 24 hours before FFA treatment, were taken out, the cell culture medium was carefully discarded, and a co-culture medium including 1,000 μM FFA (oleic:palmitic molar ratio 2:1) was added thereto. After FFA treatment, the cell culture dishes were incubated in a CO2 incubator (Thermo Scientific™) under 37° C. and 5% CO2 conditions for 144 hours. The co-culture medium including FFA was replaced at 48 and 96 hours after FFA treatment (FIG. 4).
The cell culture dishes for each experimental group shown in Table 3, which was cultured in a CO2 incubator (Thermo Scientific™) under 37° C. and 5% CO2 conditions at 72 and 96 hours before LPS treatment, were taken out, the cell culture medium was carefully discarded, and a culture medium including 0.5 ng/ml LPS was added to 1,000 μM FFA (oleic:palmitic molar ratio 2:1). After LPS treatment, the cell culture dishes were incubated in a CO2 incubator (Thermo Scientific™) under 37° C. and 5% CO2 conditions for 48 and 72 hours. […]
The absorbance of each cell culture treated with FM101 and the control material was measured in the same manner as in Experimental Example 3-1.
The absorbance of each cell culture treated with FM101 and the control material was measured in the same manner as in Experimental Example 3-2. […]

A3 adenosine receptor = details: in vivo experiments, EXCLI J. 2020 Feb. 12; 19:187-200; cited from earlier work

Row | SMILES | responsiveness of markers in triple co-culture cells on drug treatment, compared to directly co-cultured cells [1] | modulation of A3 adenosine receptor as A3AR ligand (A3 adenosine receptor)
1 | CNC(=O)[C@H]1O[C@@H](n2cnc3c(NCc4cccc(I)c4)nc(Cl)nc32)[C@H](O)[C@@H]1O [CF102, Namodenoson] | higher responsiveness and more concentration-dependent responsiveness | –
2 | OC1CSC(n2cnc3c(NCc4cccc(Cl)c4)nc(Cl)nc32)C1O (stereo not shown) [FM101] | higher responsiveness and more concentration-dependent responsiveness | modulates an A3 adenosine receptor
3 | CC(C)c1cc(Oc2c(Cl)cc(-n3nc(C#N)c(=O)[nH]c3=O)cc2Cl)n[nH]c1=O [MGL-3196, Resmetirom] | higher responsiveness and more concentration-dependent responsiveness | –
